Data taken from patent publication US9107851B2, “Solventless mixing process for coating pharmaceutical ingredients” (New Jersey Institute of Technology, priority 2012, dated 2015).

Assay: USP dissolution test (Apparatus II paddles, pH 7.2 phosphate buffer with SDS, 37° C.)
Format: physicochemical
Settings: for Time to dissolve: uncoated; for Initial dissolution rate (—): grinding pressure 0
Procedure: The coated API core particles have the taste of the API masked to allow easy swallowing or even chewing by patients. The API is still released from the coated API core particles in relatively short time. A USP Dissolution Test may be used to assess the release of API from the coated API core particles. The dissolution test employs a media of 7.2 pH phosphate buffer solution with 0.4 g/L sodium dodecyl sulfate (SDS, used to ensure wetting of the powders) at 37° C. and is carried out in USP Apparatus II (paddles) rotating at 50 RPM. The percentage of active pharmaceutical ingredient that is dissolved is measured over time. The coated API core particles can release the API in 30 minutes or less as measured in the USP Dissolution test, or in 20 minutes or less as measured in the USP dissolution test.

Time to dissolve (Example 23: 45 μm-63 μm): 10 s | Time to dissolve (Example 23: 90 μm-125 μm): less than 20 seconds | Time to dissolve (Example 23: 150 μm-250 μm): less than 60 seconds | Time to dissolve (Example 23: 425 μm-500 μm): less than 60 seconds | Initial dissolution rate (—) (ascorbic acid initial d50 93 μm): 9.16 | Initial dissolution rate (—) (ascorbic acid initial d50 192 μm): 7.764 | Initial dissolution rate (—) (ascorbic acid initial d50 341 μm): 4.053
Compound: O=C1O[C@H]([C@@H](O)CO)C(O)=C1O [ascorbic acid]
